# Data: patent publication US12274684B2, “Treatment of vasculopathy with prostacyclin and mesenchymal stem cells” (United Therapeutics Corporation, priority 2013, dated 2025)
# Values joined by “and” are separate entries in the source; they are usually repeats but may differ in a detail not shown here. Identical values can stand only once.
# Tested on: human bone marrow MSC
# Experiment: Microarray gene expression analysis of MSC (Illumina Human HT12 Expression BeadChip)
# Format: cell-based
# Conditions: 24 h
# Protocol: Human bone marrow MSC were expanded and seeded into six (6) T225 flasks using standard growth medium (Table 1). At 95-99% confluency, cells were thoroughly washed with PBS. Three (3) flasks were replenished with basal media containing 250 μg/mL treprostinil, (+)Tre, and the remaining three (3) flasks were replenished with unsupplemented basal media, (−)Tre. After 24 hours of culture, representative images were captured from (+) Tre and (−) Tre cultures. Conditioned media was collected from each replicate, divided into two samples of appropriate volumes, and analyzed separately for: 1) secreted proteins (Myriad RBM InflammationMAP® 1.0) and 2) exosome RNA content. Cells were lysed directly from culture flasks, processed for total RNA isolation, and analyzed for gene expression by microarray (Illumina Human HT12 Expression BeadChip). Microarray gene expression analysis was also performed on MSC from cultures without (−) or with (+) 250 ug/mL treprostinil. Three (3) biological replicates from each condition were analyzed. Of the 77,612 sequences identified among all replicates, only 24,273 were detected above the arbitrary background of 50 counts. 2,984 RNA sequences were unique to Tre(−) cultures, while 1,781 RNA sequences were unique to Tre(+) cultures (panel A). Genes detected in both conditions were further analyzed for differential expression (panel). […] Genes that are expressed only in Tre(−) cultures (that is to say, completely turned off in the Tre(+) cultures) are shown in Table 5.
compound,measurement,setting,value
CCCCC[C@H](O)CC[C@@H]1[C@H]2Cc3cccc(OCC(=O)O)c3C[C@H]2C[C@H]1O [treprostinil],"ACTN1 (NM_001130005) Fold Change, decrease in Tre(+) vs Tre(−)",250 μg/mL,12.7 fold
same,"ANGPT1 (NM_001146) Fold Change, decrease in Tre(+) vs Tre(−)",250 μg/mL,14.6 fold
same,"ANK3 (NM_001204403) Fold Change, decrease in Tre(+) vs Tre(−)",250 μg/mL,14.2 fold
same,"ANLN (NM_018685) Fold Change, decrease in Tre(+) vs Tre(−)",250 μg/mL,11.7 fold
same,"C11orf96 (NM_001145033) Fold Change, increase in Tre(+) vs Tre(−)",250 μg/mL,12.0 fold
same,"C13orf33 (NM_032849) Fold Change, increase in Tre(+) vs Tre(−)",250 μg/mL,21.0 fold
same,"CD55 (NM_000574) Fold Change, increase in Tre(+) vs Tre(−)",250 μg/mL,21.5 fold
same,"CD55 (NM_001114752) Fold Change, increase in Tre(+) vs Tre(−)",250 μg/mL,13.2 fold
same,"CELF1 (NM_001172640) Fold Change, decrease in Tre(+) vs Tre(−)",250 μg/mL,10.9 fold
same,"COL6A3 (NM_004369) Fold Change, decrease in Tre(+) vs Tre(−)",250 μg/mL,11.7 fold
same,"COL21A1 (NM_030820) Fold Change, decrease in Tre(+) vs Tre(−)",250 μg/mL,27.4 fold
same,"CPA4 (NM_016352) Fold Change, decrease in Tre(+) vs Tre(−)",250 μg/mL,12.0 fold
same,"CTGF (NM_001901) Fold Change, decrease in Tre(+) vs Tre(−)",250 μg/mL,31.1 fold
same,"CXCL12 (NM_199168) Fold Change, decrease in Tre(+) vs Tre(−)",250 μg/mL,15.8 fold
same,"DDAH1 (NM_001134445) Fold Change, decrease in Tre(+) vs Tre(−)",250 μg/mL,12.7 fold
same,"DKFZp547J0510 (CDNA FLJ42650 fis, clone BRACE3027478) Fold Change, decrease in Tre(+) vs Tre(−)",250 μg/mL,13.0 fold
same,"DUSP1 (NM_004417) Fold Change, increase in Tre(+) vs Tre(−)",250 μg/mL,12.9 fold
same,"EPB41L2 (NM_001199389) Fold Change, decrease in Tre(+) vs Tre(−)",250 μg/mL,11.2 fold
same,"GDF5 (NM_000557) Fold Change, decrease in Tre(+) vs Tre(−)",250 μg/mL,12.5 fold
same,"GDF15 (NM_004864) Fold Change, increase in Tre(+) vs Tre(−)",250 μg/mL,32.1 fold
same,"GPRC5A (NM_003979) Fold Change, increase in Tre(+) vs Tre(−)",250 μg/mL,13.2 fold
same,"HSD11B1 (NM_005525) Fold Change, increase in Tre(+) vs Tre(−)",250 μg/mL,15.4 fold
same,"IDH1 (NM_005896) Fold Change, increase in Tre(+) vs Tre(−)",250 μg/mL,13.1 fold
same,"IER3 (NM_003897) Fold Change, increase in Tre(+) vs Tre(−)",250 μg/mL,22.5 fold
same,"IGFBP1 (NM_000596) Fold Change, increase in Tre(+) vs Tre(−)",250 μg/mL,118.2 fold
same,"IL6 (NM_000600) Fold Change, increase in Tre(+) vs Tre(−)",250 μg/mL,109.5 fold
same,"ISLR (NM_005545) Fold Change, decrease in Tre(+) vs Tre(−)",250 μg/mL,10.1 fold
same,"LIPG (NM_006033) Fold Change, increase in Tre(+) vs Tre(−)",250 μg/mL,13.2 fold
same,"LMOD1 (NM_012134) Fold Change, decrease in Tre(+) vs Tre(−)",250 μg/mL,26.4 fold
same,"MEST (NM_002402) Fold Change, decrease in Tre(+) vs Tre(−)",250 μg/mL,15.1 fold
same,"MEST (NM_177525) Fold Change, decrease in Tre(+) vs Tre(−)",250 μg/mL,11.9 fold
same,"METTL7A (NM_014033) Fold Change, decrease in Tre(+) vs Tre(−)",250 μg/mL,11.9 fold
same,"MXRA5 (NM_015419) Fold Change, decrease in Tre(+) vs Tre(−)",250 μg/mL,32.6 fold
same,"NR4A2 (NM_006186) Fold Change, increase in Tre(+) vs Tre(−)",250 μg/mL,12.5 fold
same,"OLFML1 (NM_198474) Fold Change, decrease in Tre(+) vs Tre(−)",250 μg/mL,12.4 fold
same,"OLFML2B (NM_015441) Fold Change, decrease in Tre(+) vs Tre(−)",250 μg/mL,20.8 fold
same,"PALLD (NM_001166109) Fold Change, decrease in Tre(+) vs Tre(−)",250 μg/mL,13.0 fold
same,"PALLD (NM_001166110) Fold Change, increase in Tre(+) vs Tre(−)",250 μg/mL,13.3 fold
same,"PDE5A (NM_033430) Fold Change, decrease in Tre(+) vs Tre(−)",250 μg/mL,15.2 fold
same,"PITPNC1 (NM_181671) Fold Change, increase in Tre(+) vs Tre(−)",250 μg/mL,16.0 fold
same,"PLIN2 (NM_001122) Fold Change, increase in Tre(+) vs Tre(−)",250 μg/mL,47.0 fold
same,"PRELP (NM_002725) Fold Change, decrease in Tre(+) vs Tre(−)",250 μg/mL,12.9 fold
same,"PRKAG2 (NM_024429) Fold Change, increase in Tre(+) vs Tre(−)",250 μg/mL,78.6 fold
same,"PTP4A1 (NM_003463) Fold Change, increase in Tre(+) vs Tre(−)",250 μg/mL,11.8 fold
same,"RCAN1 (NM_203418) Fold Change, increase in Tre(+) vs Tre(−)",250 μg/mL,10.9 fold
same,"RCAN2 (NM_001251974) Fold Change, decrease in Tre(+) vs Tre(−)",250 μg/mL,11.6 fold
same,"RND3 (NM_005168) Fold Change, increase in Tre(+) vs Tre(−)",250 μg/mL,12.9 fold
same,"S100A4 (NM_002961) Fold Change, decrease in Tre(+) vs Tre(−)",250 μg/mL,10.5 fold
same,"SAT1 (transcript variant 2, non-coding RNA) Fold Change, increase in Tre(+) vs Tre(−)",250 μg/mL,13.5 fold
same,"SCG2 (NM_003469) Fold Change, increase in Tre(+) vs Tre(−)",250 μg/mL,21.3 fold
same,"SIK1 (NM_173354) Fold Change, increase in Tre(+) vs Tre(−)",250 μg/mL,20.3 fold
same,"SLC2A12 (NM_145176) Fold Change, decrease in Tre(+) vs Tre(−)",250 μg/mL,12.2 fold
same,"SLC3A2 (NM_001013251) Fold Change, increase in Tre(+) vs Tre(−)",250 μg/mL,10.5 fold
same,"SLC6A15 (NM_182767) Fold Change, increase in Tre(+) vs Tre(−)",250 μg/mL,23.7 fold
same,"SLC14A1 (NM_015865) Fold Change, decrease in Tre(+) vs Tre(−)",250 μg/mL,18.5 fold
same,"SREBF1 (NM_004176) Fold Change, increase in Tre(+) vs Tre(−)",250 μg/mL,11.5 fold
same,"SYNPO2 (NM_001128933) Fold Change, decrease in Tre(+) vs Tre(−)",250 μg/mL,24.6 fold
same,"VEGFA (NM_001025370) Fold Change, increase in Tre(+) vs Tre(−)",250 μg/mL,13.5 fold
same,"VEGFA (NM_001171626) Fold Change, increase in Tre(+) vs Tre(−)",250 μg/mL,11.5 fold
same,"ANGPTL4 (NM_139314) expression, Rep 1-3",Tre(+) 250 μg/mL,1570 counts and 2337 counts and 1371 counts
same,"ANLN (NM_018685) expression, Rep 1-3",Tre(+) 250 μg/mL,67 counts and 68 counts and 37 counts
